{"source": "patent US7816400B2", "about": "(The University of Hong Kong, priority 2007, dated 2010)", "key": {"INa": {"test_system": "INa", "assay": "INa in guinea pig ventricular myocytes", "assay_type": "cell-based", "settings": "30 and 100 μM", "protocol": "(§1) Guinea pigs of either gender (250-300 g) were sacrificed by cervical dislocation after anesthetization with pentobarbital (40 mg kg, i.p.). The procedure related to the use of animals in this invention was approved by the Animal Care and Use Committee for Teaching and Research of University of Hong Kong in accordance with the Guide for the Care and Use of Laboratory Animals (Institute of Laboratory Animal Resources, Commission on Life Sciences, National Research Council, 1996). Left atrial and ventricular myocytes from guinea pig hearts were enzymatically dissociated by the procedure described previously (Li et al., 2002a) and the isolated myocytes were kept in the K^+ storage medium.\n(§2) The Ca^2+-free cardioplegic solution for specimen transport contained (in mM) 50 KH2PO4, 8 MgSO4, 5 adenosine, 10 HEPES, 140 glucose, 100 mannitol, 10 taurine, pH was adjusted to 7.3 with KOH. Tyrode solution contained (in mM) 140 NaCl, 5.4 KCl, 1 MgCl2, 1 CaCl2, 0.33 NaH2PO4, 10 HEPES, 10 glucose, pH was adjusted to 7.4 with NaOH. […] INa was recorded under conditions of K^+-free and a symmetrical Na^+ (5 mM) in pipette and superfusion solutions as described previously (Li at al., 2002a).\n(§3) The whole-cell patch-clamp technique was used for electrophysiological recording. […] Membrane currents were recorded in voltage-clamp mode using an EPC-9 amplifier and Pulse software (HEKA, Lambrecht, Germany). […]"}, "ICa.L": {"test_system": "ICa.L", "assay": "ICa.L in guinea pig ventricular myocytes", "assay_type": "cell-based", "settings": "30 and 100 μM", "protocol": "as §1, §2, §3"}, "hERG channels": {"target": "hERG channels (Homo sapiens, UniProt Q12809)", "sequence (Q12809 whole entry)": "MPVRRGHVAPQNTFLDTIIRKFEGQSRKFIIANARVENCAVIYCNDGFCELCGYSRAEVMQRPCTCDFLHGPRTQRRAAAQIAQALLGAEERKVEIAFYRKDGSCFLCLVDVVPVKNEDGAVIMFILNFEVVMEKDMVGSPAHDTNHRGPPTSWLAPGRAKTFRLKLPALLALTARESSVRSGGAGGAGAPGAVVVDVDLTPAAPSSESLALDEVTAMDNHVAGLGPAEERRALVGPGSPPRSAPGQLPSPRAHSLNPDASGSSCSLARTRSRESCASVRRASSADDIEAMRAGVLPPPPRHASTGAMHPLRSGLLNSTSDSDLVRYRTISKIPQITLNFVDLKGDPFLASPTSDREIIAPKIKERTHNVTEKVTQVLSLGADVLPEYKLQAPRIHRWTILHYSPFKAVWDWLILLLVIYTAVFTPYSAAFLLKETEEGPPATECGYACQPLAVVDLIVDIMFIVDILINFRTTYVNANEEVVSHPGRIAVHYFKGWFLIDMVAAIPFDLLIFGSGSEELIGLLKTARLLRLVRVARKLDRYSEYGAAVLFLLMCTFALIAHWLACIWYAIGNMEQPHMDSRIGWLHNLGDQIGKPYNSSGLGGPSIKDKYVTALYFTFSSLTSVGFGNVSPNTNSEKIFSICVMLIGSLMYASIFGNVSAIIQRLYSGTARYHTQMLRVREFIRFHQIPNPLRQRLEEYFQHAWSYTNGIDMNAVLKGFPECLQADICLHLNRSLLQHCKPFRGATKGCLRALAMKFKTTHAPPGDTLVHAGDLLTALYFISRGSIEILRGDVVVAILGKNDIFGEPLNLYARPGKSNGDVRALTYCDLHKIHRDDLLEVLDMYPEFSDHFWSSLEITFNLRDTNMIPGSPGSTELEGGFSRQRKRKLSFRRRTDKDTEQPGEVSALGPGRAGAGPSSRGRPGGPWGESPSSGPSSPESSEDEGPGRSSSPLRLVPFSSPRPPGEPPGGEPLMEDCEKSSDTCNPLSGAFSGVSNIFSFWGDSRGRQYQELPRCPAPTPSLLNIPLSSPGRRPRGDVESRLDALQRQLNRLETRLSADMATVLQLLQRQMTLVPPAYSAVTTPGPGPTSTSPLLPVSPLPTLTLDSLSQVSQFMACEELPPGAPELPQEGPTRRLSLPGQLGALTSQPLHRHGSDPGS", "assay": "cell-based"}, "anesthetized dogs": {"test_system": "anesthetized dogs", "assay": "In vivo electrophysiology (atrial ERP, QTc) in anesthetized dogs", "set-up": "species or system dog", "settings": "5 mg/kg intraduodenal, BCL 200 ms, pre-treatment (baseline)", "experimental": "Adult mongrel dogs (12-15 kg) were anesthetized with pentobarbital (30 mg/kg i.v.), supplemented during the experiment when needed. The animal was intubated and ventilated with room air. Body temperature was maintained at 37-38° C. with a temperature control system. The left femoral vein was cannulated for maintenance of anesthesia and introducing the mono-phasic action potential (MAP) recording- and pacing-catheters (Boston Scientific Ltd) to the right atrium. The vagus nerves were isolated and divided in the neck. […] A left thoracotomy was performed in the fourth intercostal space, and the pericardium was incised to provide access to the left atrium for introducing the MAP catheter. The catheters were used for recording MAPs of right and left atria, respectively, and for measurement of effective refractory period (ERP). […] A ligation was made at the pylorus with a thick cotton thread to prevent the possible back flow of the duodenum content.\nFollowing a 30-min equilibration period and measurement of atrial excitation threshold with 2-ms duration of stimuli, atrial ERP was determined using a train of 8 basic stimuli (S1, twice-diastolic threshold) followed by an identical premature stimulus (S2). The basic cycle lengths (BCL) of 200, 250 and 300 ms were applied in both right and left atria. S2 was initially delivered late in diastole in 5-ms decrements until a response was not elicited by the S2 indicated on the MAP recording. The ERP was defined as the longest S1-S2 interval failing a propagated response, and the procedure was repeated for three times for each measurement. MAP, ECG and blood pressure signals were continuously monitored and stored on an IBM compatible PC computer using a multiple channels data acquisition system (RM-6280C, Chengdu Instrument Ltd, Chendu, China).\nThe ERP measurement was then repeated every hour post drug administration for 6 hours. Excitation threshold of both right and left atria was verified before ERP each measurement. • 1.7.2.\nThe ERPs were determined in anesthetized dogs using the BCLs of 300, 250, and 200 ms by introducing S1-S2 via a programmed cardiac stimulator (FIG. 10A)."}}, "note": "“Also recorded” adds a separate entry of the source.", "data": [{"smiles": "COc1ccc(-c2cc(=O)c3c(O)cc(O)cc3o2)cc1", "note": "[Acacetin, 5,7-dihydroxy-4′-methoxyflavone]", "values": [{"measurement": "effect on INa, in words", "setting": "INa", "result": "no effect; also recorded: no inhibition"}, {"measurement": "effect on INa, in words", "setting": "INa; listed as acacetin", "result": "no effects"}, {"measurement": "effect on ICa.L, in words", "setting": "ICa.L", "result": "no effect; also recorded: no inhibition"}, {"measurement": "effect on ICa.L, in words", "setting": "ICa.L; listed as acacetin", "result": "no effects"}, {"measurement": "IC50", "setting": "hERG channels", "result": 32.4, "unit": "µM"}, {"measurement": "right atrial ERP (ms), BCL 200 ms", "setting": "anesthetized dogs", "result": "87.2 ± 7.9", "unit": "ms"}]}]}
